Assays:
[1] = test system: rice leafroller (Cnaphalocrocis medinalis); experiment: Insecticidal effect on rice leafroller (Test Example 3); type: in vivo; details: 500 ppm, four days after inoculation, 25° C., humidity 70%; for Insecticidal effect, Test Example 3: rice lamina immersed, third-instar larvae of rice leafroller; for Insecticidal effect on rice leafroller (Test Example 3), judged grade: rice lamina dip, third-instar larvae
Method in brief: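 Groups of 10 third-instar larvae, in triplicate, are placed on air-dried lamina resting on wet filter paper. Incubation runs four days at 25° C with 70% humidity before survivors and dead are tallied.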

[2] = test system: diamondback moth (Plutella xylostella); experiment: Insecticidal effect on diamondback moth (Test Example 1); type: in vivo; details: for Insecticidal effect, Test Example 1: diamondback moth, judged by the mortality criterion of Test Example 1; for Insecticidal effect on diamondback moth (Test Example 1), judged grade: mortality judged according to the criterion shown in Test Example 1
Method in brief: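 Eggs laid by adult moths on Chinese cabbage seedlings, which were immersed in test solution, air-dried and kept at 25 °C. Hatched insects counted 6 days after immersion and mortality calculated, with effect graded by criterion; triplicate groups of 10 insects.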

Structure (SMILES): CC(C)NC(=O)c1c(I)cccc1C(=O)Nc1cccc(C(F)(F)F)c1 [compound 348]
- Insecticidal effect, Test Example 3 [1]: A (100)
- Insecticidal effect, Test Example 1 [2]: A (100)

Structure (SMILES): COc1ccc(NC(=O)c2cccc(I)c2C(=O)NC(C)C)c(C)c1 [compound 376]
- Insecticidal effect, Test Example 3 [1]: A (100)
- Insecticidal effect, Test Example 1 [2]: A (100)

Structure (SMILES): Cc1cc(OC(C)C)ccc1NC(=O)c1cccc(I)c1C(=O)NC(C)C [compound 377]
- Insecticidal effect, Test Example 3 [1]: A (100)
- Insecticidal effect, Test Example 1 [2]: A (100)

Structure (SMILES): CC(C)NC(=O)c1c(I)cccc1C(=O)Nc1cc(Cl)c(OC(F)F)c(Cl)c1 [compound 383]
- Insecticidal effect, Test Example 3 [1]: A (100)
- Insecticidal effect, Test Example 1 [2]: A (100)

Structure (SMILES): COc1cc(NC(=O)c2cccc(I)c2C(=O)NC(C)C)ccc1OC(F)F [compound 384]
- Insecticidal effect, Test Example 3 [1]: C (89-80)
- Insecticidal effect, Test Example 1 [2]: A (100)

Structure (SMILES): CC(C)NC(=O)c1cccc(I)c1C(=O)Nc1ccc(Cl)cc1 [compound 411]
- Insecticidal effect, Test Example 3 [1]: A (100)
- Insecticidal effect, Test Example 1 [2]: A (100)

Structure (SMILES): CC(C)NC(=O)c1cccc(I)c1C(=O)Nc1ccc(Br)cc1 [compound 412]
- Insecticidal effect, Test Example 3 [1]: C (89-80)
- Insecticidal effect, Test Example 1 [2]: A (100)

Structure (SMILES): CC(C)NC(=O)c1cccc(I)c1C(=O)Nc1ccc(I)cc1 [compound 413]
- Insecticidal effect, Test Example 3 [1]: C (89-80)
- Insecticidal effect, Test Example 1 [2]: A (100)

Structure (SMILES): CC(C)NC(=O)c1cccc(I)c1C(=O)Nc1cccc(C(F)(F)F)c1 [compound 414]
- Insecticidal effect, Test Example 3 [1]: A (100)
- Insecticidal effect, Test Example 1 [2]: A (100)

Structure (SMILES): CC(C)NC(=O)c1cccc(I)c1C(=O)Nc1ccc(SCC(F)(F)F)cc1 [compound 420]
- Insecticidal effect, Test Example 3 [1]: D (79-50)
- Insecticidal effect, Test Example 1 [2]: A (100)

Structure (SMILES): Cc1c(Cl)cccc1NC(=O)c1c(I)cccc1C(=O)NC(C)C [compound 427]
- Insecticidal effect, Test Example 3 [1]: D (79-50)
- Insecticidal effect, Test Example 1 [2]: A (100)

Structure (SMILES): Cc1cc(F)ccc1NC(=O)c1c(I)cccc1C(=O)NC(C)C [compound 432]
- Insecticidal effect, Test Example 3 [1]: A (100)
- Insecticidal effect, Test Example 1 [2]: A (100)

Structure (SMILES): CC(C)NC(=O)c1cccc(I)c1C(=O)Nc1ccc(C(F)(F)F)cc1Cl [compound 433]
- Insecticidal effect, Test Example 3 [1]: A (100)
- Insecticidal effect, Test Example 1 [2]: A (100)

Structure (SMILES): COc1ccc(NC(=O)c2c(I)cccc2C(=O)NC(C)C)c(C)c1 [compound 441]
- Insecticidal effect, Test Example 3 [1]: B (99-90)
- Insecticidal effect, Test Example 1 [2]: A (100)

Structure (SMILES): Cc1cc(OCC(F)(F)F)ccc1NC(=O)c1c(I)cccc1C(=O)NC(C)C [compound 443]
- Insecticidal effect, Test Example 3 [1]: D (79-50)
- Insecticidal effect, Test Example 1 [2]: A (100)

Structure (SMILES): Cc1cc(OC(F)(F)C(F)(F)Br)ccc1NC(=O)c1c(I)cccc1C(=O)NC(C)C [compound 444]
- Insecticidal effect, Test Example 3 [1]: A (100)
- Insecticidal effect, Test Example 1 [2]: A (100)

Structure (SMILES): CC(C)NC(=O)c1cccc(I)c1C(=O)Nc1ccc(OC(F)F)c(F)c1 [compound 448]
- Insecticidal effect on rice leafroller (Test Example 3), judged grade [1]: A (100)
- Insecticidal effect on diamondback moth (Test Example 1), judged grade [2]: A (100)

Structure (SMILES): COc1cc(NC(=O)c2c(I)cccc2C(=O)NC(C)C)ccc1OC(F)F [compound 450]
- Insecticidal effect on rice leafroller (Test Example 3), judged grade [1]: C (89-80)
- Insecticidal effect on diamondback moth (Test Example 1), judged grade [2]: A (100)

Structure (SMILES): Cc1cc(OC(F)(F)C(F)C(F)(F)F)ccc1NC(=O)c1c(I)cccc1C(=O)NC(C)C (centres unmarked) [compound 456]
- Insecticidal effect on rice leafroller (Test Example 3), judged grade [1]: A (100)
- Insecticidal effect on diamondback moth (Test Example 1), judged grade [2]: A (100)

Structure (SMILES): Cc1cc(OC(F)(F)F)ccc1NC(=O)c1c(I)cccc1C(=O)NC(C)C [compound 464]
- Insecticidal effect on rice leafroller (Test Example 3), judged grade [1]: A (100)
- Insecticidal effect on diamondback moth (Test Example 1), judged grade [2]: A (100)

Structure (SMILES): CC(C)NC(=O)c1cccc(I)c1C(=O)Nc1ccc(OC(F)(F)F)cc1Br [compound 466]
- Insecticidal effect on rice leafroller (Test Example 3), judged grade [1]: A (100)
- Insecticidal effect on diamondback moth (Test Example 1), judged grade [2]: A (100)

Structure (SMILES): CC(C)NC(=O)c1cccc(I)c1C(=O)Nc1ccc(OC(F)(F)F)cc1Cl [compound 467]
- Insecticidal effect on rice leafroller (Test Example 3), judged grade [1]: A (100)
- Insecticidal effect on diamondback moth (Test Example 1), judged grade [2]: A (100)

Structure (SMILES): CC(C)NC(=O)c1c(F)cccc1C(=O)Nc1ccc(C(F)(F)C(F)(F)C(F)(F)C(F)(F)F)cc1 [compound 472]
- Insecticidal effect on rice leafroller (Test Example 3), judged grade [1]: B (99-90)
- Insecticidal effect on diamondback moth (Test Example 1), judged grade [2]: A (100)

Structure (SMILES): CC(C)NC(=O)c1c(F)cccc1C(=O)Nc1ccc(OC(F)(F)F)cc1 [compound 475]
- Insecticidal effect on rice leafroller (Test Example 3), judged grade [1]: D (79-50)
- Insecticidal effect on diamondback moth (Test Example 1), judged grade [2]: A (100)

Structure (SMILES): CC(C)NC(=O)c1c(F)cccc1C(=O)Nc1ccc(SC(F)F)cc1 [compound 477]
- Insecticidal effect on rice leafroller (Test Example 3), judged grade [1]: C (89-80)
- Insecticidal effect on diamondback moth (Test Example 1), judged grade [2]: A (100)

Structure (SMILES): CC(C)NC(=O)c1c(F)cccc1C(=O)Nc1ccc(SC(F)(F)C(F)F)cc1 [compound 479]
- Insecticidal effect on rice leafroller (Test Example 3), judged grade [1]: A (100)
- Insecticidal effect on diamondback moth (Test Example 1), judged grade [2]: A (100)

Structure (SMILES): Cc1c(F)cccc1NC(=O)c1cccc(F)c1C(=O)NC(C)C [compound 494]
- Insecticidal effect on rice leafroller (Test Example 3), judged grade [1]: A (100)
- Insecticidal effect on diamondback moth (Test Example 1), judged grade [2]: A (100)

Structure (SMILES): Cc1cc(OC(F)(F)C(F)OC(F)(F)F)ccc1NC(=O)c1cccc(F)c1C(=O)NC(C)C (centres unmarked) [compound 515]
- Insecticidal effect on rice leafroller (Test Example 3), judged grade [1]: C (89-80)
- Insecticidal effect on diamondback moth (Test Example 1), judged grade [2]: A (100)

Structure (SMILES): Cc1cc(SC(C)C)ccc1NC(=O)c1cccc(F)c1C(=O)NC(C)C [compound 518]
- Insecticidal effect on rice leafroller (Test Example 3), judged grade [1]: B (99-90)
- Insecticidal effect on diamondback moth (Test Example 1), judged grade [2]: A (100)

Structure (SMILES): CC(C)NC(=O)c1c(F)cccc1C(=O)Nc1ccc2c(c1)OCO2 [compound 528]
- Insecticidal effect on rice leafroller (Test Example 3), judged grade [1]: A (100)
- Insecticidal effect on diamondback moth (Test Example 1), judged grade [2]: A (100)

Structure (SMILES): Cc1ccc(Cl)cc1NC(=O)c1ccc(F)cc1C(=O)NC(C)C [compound 530]
- Insecticidal effect on rice leafroller (Test Example 3), judged grade [1]: D (79-50)
- Insecticidal effect on diamondback moth (Test Example 1), judged grade [2]: A (100)

Structure (SMILES): Cc1cc(OC(F)F)ccc1NC(=O)c1ccc(F)cc1C(=O)NC(C)C [compound 531]
- Insecticidal effect on rice leafroller (Test Example 3), judged grade [1]: A (100)
- Insecticidal effect on diamondback moth (Test Example 1), judged grade [2]: A (100)

Structure (SMILES): Cc1cc(Cl)ccc1NC(=O)c1cc(F)ccc1C(=O)NC(C)C [compound 532]
- Insecticidal effect on rice leafroller (Test Example 3), judged grade [1]: A (100)
- Insecticidal effect on diamondback moth (Test Example 1), judged grade [2]: A (100)

Structure (SMILES): Cc1cc(OC(F)F)ccc1NC(=O)c1cc(F)ccc1C(=O)NC(C)C [compound 534]
- Insecticidal effect on rice leafroller (Test Example 3), judged grade [1]: A (100)
- Insecticidal effect on diamondback moth (Test Example 1), judged grade [2]: A (100)

Structure (SMILES): CC(C)NC(=O)c1cccc(F)c1C(=O)Nc1cccc(Cl)c1Cl [compound 543]
- Insecticidal effect on rice leafroller (Test Example 3), judged grade [1]: A (100)
- Insecticidal effect on diamondback moth (Test Example 1), judged grade [2]: A (100)

Structure (SMILES): Cc1c(Cl)cccc1NC(=O)c1c(F)cccc1C(=O)NC(C)C [compound 544]
- Insecticidal effect on rice leafroller (Test Example 3), judged grade [1]: A (100)
- Insecticidal effect on diamondback moth (Test Example 1), judged grade [2]: A (100)

Structure (SMILES): Cc1cc(Cl)ccc1NC(=O)c1c(F)cccc1C(=O)NC(C)C [compound 545]
- Insecticidal effect on rice leafroller (Test Example 3), judged grade [1]: A (100)
- Insecticidal effect on diamondback moth (Test Example 1), judged grade [2]: A (100)

From US6362369B1, “Phthalic acid diamide derivatives fluorine-containing aniline compounds as starting material, agricultural and horticultural insecticides, and a method for application of the insecticides” (Nihon Nohyaku Co., Ltd., priority 1997, dated 2002)
